Assay results as given in US4839374A, “4-((Bicyclic heterocyclyl)-methyl and -hetero)-piperidines” (Janssen Pharmaceutica, N.V., priority 1987, dated 1989).

Test system: compound 48/80-induced lethality
Experiment: Protection of rats from compound 48/80-induced lethality
Format: in vivo, rats of an inbred Wistar strain
Conditions: Rattus norvegicus, 4 h, read-out: Compound 48/80 lethality test in rats ED50, s.c. or p.o. 1 h before compound 48/80 0.5 mg/kg i.v.; protection of 50% of animals, survival after 4 hours
Description: Protection of rats from compound 48/80-induced lethality
The protection from compound 48/80-induced lethal circulatory collapse appears to be a simple way of evaluating quantitatively the antihistaminic activity of test compounds. Male rats of an inbred Wistar strain, weighing 240-260 g were used in the experiment. After overnight starvation the rats were transferred to conditioned laboratories (temp.=21±1° C., relative humidity=65+5%). The rats were treated subcutaneously or orally with a test compound or with the solvent (NaCl solution, 0.9%). […] Survival after 4 hours is therefore considered to be a safe criterion of a protective effect of drug administration. The ED50 -values of the compounds of formula (I) are listed in the first column of tables 1 to 4. Said ED50 -values are the values in mg/kg body weight at which the tested compounds protect 50% of the tested animals against compound 48/80-induced lethality. The compounds of formula (I) and the pharmaceutically acceptable acid addition salts thereof are also potent serotonin-antagonists. The potency of the subject compounds as serotonin-antagonists is clearly evidenced by the results obtained in the following tests wherein the antagonistic activity of the subject compounds on the effect of serotonin is examined.

Structure (SMILES)	ED50 [mg/kg]
CN1CCC(Cc2nc3ccccc3n2Cc2ccco2)CC1 [Compound 86]	0.01
O=[N+]([O-])c1ccccc1NCCN1CCC(Cc2nc3ccccc3n2Cc2ccc(F)cc2)CC1 [Compound 366]	0.31
COc1ccc(CCN2CCC(Cc3nc4ccccc4n3Cc3cnccn3)CC2)cc1 [Compound 524, 2-[[1-[2-(4-methoxyphenyl)ethyl]-4-piperidinyl]methyl]-1-(2-pyrazinylmethyl)-1H-benzimidazole]	0.16
Fc1ccc(Cn2c(CC3CCN(CCNc4nc5ccccc5[nH]4)CC3)nc3cccnc32)cc1 [Compound 329, N-[2-[4-[[3-[(4-fluorophenyl)methyl]-3H-imidazo[4,5-b]pyridin-2-yl]methyl]-1-piperidinyl]ethyl]1H-benzimidazol-2-amine]	0.31
Cn1cnc2c(NCCN3CCC(Cc4nc5ccccc5n4Cc4ccc(F)cc4)CC3)ncnc21 [Compound 369]	0.04
OCCN1CCC(Cc2nc3ccccc3n2Cc2ccccc2)CC1 [Compound 112]	0.08
Cc1nc2n(c(=O)c1CCN1CCC(Cc3nc4ccccc4n3Cc3ccc(F)cc3)CC1)CCCS2 [Compound 158]	0.04
CCOC(=O)NCCN1CCC(Cc2nc3ccccc3n2Cc2cscn2)CC1 [Compound 248]	0.04
CCn1nnnc1SCCN1CCC(Cc2nc3ccccc3n2Cc2ccc(F)cc2)CC1 [Compound 181]	0.04
COc1ccc(CCN2CCC(Cc3nc4ccncc4n3Cc3ccc(F)cc3)CC2)cc1 [Compound 204, 3-[(4-fluorophenyl)methyl]-2-[[1-[2-(4-methoxyphenyl)ethyl]-4-piperidinyl]methyl]-3H-imidazo-[4,5-c]pyridine]	0.08
OCCN1CCC(Cc2nc3cccnc3n2Cc2ccc(F)cc2)CC1 [Compound 115, 4-[[3-[(4-fluorophenyl)methyl]-3H-imidazo[4,5-b]pyridin-2-yl]methyl]-1-piperidineethanol]	0.16
C[C@@H]1CN(CCNc2ncccn2)CC[C@@H]1Oc1nc2ccccc2n1Cc1ccc(F)cc1 (relative stereo) [Compound 349, cis-N-[2-[4-[[1-[(4-fluorophenyl)methyl]-1H-benzimidazol-2-yl]oxy]-3-methyl-1-piperidinyl]ethyl]-2-pyrimidinamine]	0.08
Cc1nc2n(c(=O)c1CCN1CCC(Cc3nc4ccccc4n3Cc3ccco3)CC1)CCCS2 [Compound 166]	0.04
Fc1ccc(Cn2c(OC3CCN(CCOc4ncccn4)CC3)nc3ccccc32)cc1 [Compound 390, 1-[(4-fluorophenyl)methyl]-2-[[1-[2-(2-pyrimidinyloxy)ethyl]-4-piperidinyl]oxy]-1H-benzimidazole]	0.04
Cc1nc2ccccn2c(=O)c1CCN1CCC(Cc2nc3ccncc3n2Cc2ccc(F)cc2)CC1 [Compound 270]	0.08
Cn1ccnc1NCCN1CCC(Cc2nc3ccccc3n2Cc2ccc(F)cc2)CC1 [Compound 452, 4-[[1-[(4-fluorophenyl)methyl]-1H-benzimidazol-2-yl]methyl]-N-(1-methyl-1H-imidazol-2-yl)-1-piperidineethanamine]	0.16
c1csc(Cn2c(CC3CCN(CCNc4nccs4)CC3)nc3cccnc32)c1 [Compound 361]	0.02
Cn1c(=O)n(CCN2CCC(Cc3nc4ccccc4n3Cc3ccco3)CC2)c(=O)c2ccccc21 [Compound 221]	0.04
Fc1ccc(Cn2c(OC3CCNCC3)nc3ccccc32)cc1 [Compound 66, 1-[(4-fluorophenyl)methyl]-2-(4-piperidinyloxy)-1H-benzimidazole]	0.02
Fc1ccc(Cn2c(OC3CCN(CCNc4nccs4)CC3)nc3ccccc32)cc1 [Compound 355]	0.08
CC(C)NC(=O)CN1CCC(Cc2nc3ccccc3n2Cc2ccc(F)cc2)CC1 [Compound 134]	0.04
OCCN1CCC(Sc2nc3ccccc3n2Cc2ccc(F)cc2)CC1 [Compound 104, 4-[[1-[(4-fluorophenyl)-methyl]-1H-benzimidazol-2-yl]thio]-1-piperidineethanol]	0.08
COc1ccc(Cn2c(CC3CCN(CCNc4nccs4)CC3)nc3cccnc32)cc1 [Compound 365]	0.08
